For 23 compounds, Ki results are on record in patent US9062078B2, “Substituted 7-azabicyles and their use as orexin receptor modulators” (priority 2013, dated 2015).

Like-named read-outs stand apart in the source and are kept apart here.

In general, Ki refers to the dissociation constant of the complex between target and ligand, obtained from inhibition or displacement.

Test [1] deals with human orexin 1 receptor (Homo sapiens (Human), UniProt O43613). As to the kind of experiment: Human orexin 1 receptor radioligand binding (competitive, [3H]-SB674042, CHO cell preparations).
Sequence of human orexin 1 receptor (O43613 whole entry): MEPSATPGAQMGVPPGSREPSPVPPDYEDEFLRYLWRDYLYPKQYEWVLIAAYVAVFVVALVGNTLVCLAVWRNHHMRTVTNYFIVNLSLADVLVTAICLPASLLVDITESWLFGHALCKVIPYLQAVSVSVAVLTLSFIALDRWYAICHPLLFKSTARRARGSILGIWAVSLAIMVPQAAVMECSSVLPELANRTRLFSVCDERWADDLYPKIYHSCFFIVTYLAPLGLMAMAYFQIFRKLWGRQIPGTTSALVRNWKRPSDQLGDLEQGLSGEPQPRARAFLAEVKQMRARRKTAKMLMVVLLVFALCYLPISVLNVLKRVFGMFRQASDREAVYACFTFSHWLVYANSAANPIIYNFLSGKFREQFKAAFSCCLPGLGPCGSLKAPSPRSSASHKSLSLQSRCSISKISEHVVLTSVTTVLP
The target in test [2] is human orexin 2 receptor (Homo sapiens (Human), UniProt O43614). Kind of test: Human orexin 2 receptor radioligand binding (competitive, [3H]-EMPA, HEK293 cell preparations).
Sequence of human orexin 2 receptor (O43614 whole entry): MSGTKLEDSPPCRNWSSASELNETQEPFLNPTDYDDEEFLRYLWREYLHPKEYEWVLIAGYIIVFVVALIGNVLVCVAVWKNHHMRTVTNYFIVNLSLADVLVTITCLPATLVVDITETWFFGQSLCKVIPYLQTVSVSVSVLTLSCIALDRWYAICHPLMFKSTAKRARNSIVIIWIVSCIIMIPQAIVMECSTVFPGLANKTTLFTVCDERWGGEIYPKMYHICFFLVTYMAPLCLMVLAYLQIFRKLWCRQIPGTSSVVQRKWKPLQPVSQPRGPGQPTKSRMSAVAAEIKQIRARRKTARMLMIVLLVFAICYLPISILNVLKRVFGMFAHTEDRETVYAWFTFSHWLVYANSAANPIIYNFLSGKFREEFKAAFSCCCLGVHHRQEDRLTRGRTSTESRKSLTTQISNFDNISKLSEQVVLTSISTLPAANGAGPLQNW
The target of test [3] is rat orexin 1 receptor (Rattus norvegicus, UniProt P56718). As to the kind of experiment: Rat orexin 1 receptor radioligand binding (competitive, [3H]-SB674042, HEK293 cell preparations).
Setting [4] is: human orexin 2 receptor, [3H]-EMPA competition binding, read-out: hOX2 Ki (nm).
The mark [5] stands for this setting: human orexin 1 receptor, [3H]-SB674042 competition binding, read-out: hOX1 Ki (nm).
[6] abbreviates: rat orexin 1 receptor, [3H]-SB674042 competition binding, read-out: rOX1 Ki (nm).

Turning to `Cc1cccc(C(=O)N2C3CCC2C(COc2ccc(F)cn2)C3)c1-n1nccn1` (racemic) [Example 125, (±)-(2-(((5-fluoropyridin-2-yl)oxy)methyl)-7-azabicyclo[2.2.1]heptan-7-yl)(3-methyl-2-(2H-1,2,3-triazol-2-yl)phenyl)methanone], the Ki amounted to 29 nM in test [1] (hOX1 Ki (nm)), 132 nM in test [2] (setting [4]) and 47 nM in test [3] (rOX1 Ki (nm)).

Take `O=C(c1cc(CO)ccc1-n1nccn1)N1C2CCC1C(COc1ccc(F)cn1)C2` (racemic) [Example 126, (±)-(2-(((5-fluoropyridin-2-yl)oxy)methyl)-7-azabicyclo[2.2.1]heptan-7-yl)(5-(hydroxymethyl)-2-(2H-1,2,3-triazol-2-yl)phenyl)methanone]: the Ki in test [1] (setting [5]) was found to be 27 nM; in test [2] (setting [4]), 231 nM; in test [3] (setting [6]), 23 nM.

Consider `CCOc1ncc(Br)cc1C(=O)N1C2CCC1C(COc1ccccn1)C2` (racemic) [Example 157, (±)-(5-bromo-2-ethoxypyridin-3-yl)(2-((pyridin-2-yloxy)methyl)-7-azabicyclo[2.2.1]heptan-7-yl)methanone], for which the Ki in test [1] (hOX1 Ki (nm)) turned out to be 134 nM; in test [2] (setting [4]), 537 nM; in test [3] (rOX1 Ki (nm)), 94 nM.

For `CCOc1ccnc(OCC)c1C(=O)N1C2CCC1C(COc1ccccn1)C2` (racemic) [Example 163, (±)-(2,4-diethoxypyridin-3-yl)(2-((pyridin-2-yloxy)methyl)-7-azabicyclo[2.2.1]heptan-7-yl)methanone], the Ki amounted to 153 nM in test [1] (setting [5]), 150 nM in test [2] (setting [4]) and 150 nM in test [3] (setting [6]).

As to `Cc1ccc(-n2nccn2)c(C(=O)N2C3CCC2C(COc2ncccc2C)C3)n1` (racemic) [Example 176, (±)-(6-methyl-3-(2H-1,2,3-triazol-2-yl)pyridin-2-yl)(2-(((3-methylpyridin-2-yl)oxy)methyl)-7-azabicyclo[2.2.1]heptan-7-yl)methanone], the values for the Ki in test [1] (read-out: hOX1 Ki (nm)), in test [2] (setting [4]) and in test [3] (read-out: rOX1 Ki (nm)) were 150 nM, 202 nM and 119 nM, respectively.

In the case of `Cc1cnc(C(=O)N2C3CCC2C(Nc2cnc(C(F)(F)F)cn2)C3)c(-n2nccn2)c1` (racemic) [Example 184, (±)-(5-methyl-3-(2H-1,2,3-triazol-2-yl)pyridin-2-yl)(2-(5-(trifluoromethyl)pyrazin-2-yl)amino)-7-azabicyclo[2.2.1]heptan-7-yl)methanone], the Ki in test [1] (setting [5]) came out at 349 nM; in test [2] (hOX2 Ki (nm)), 4100 nM; in test [3] (setting [6]) it was 189 nM.

Take `Cc1ccc(-n2nccn2)c(C(=O)N2C3CCC2C(Nc2cnc(C(F)(F)F)cn2)C3)n1` (racemic) [Example 186, (±)-(6-methyl-3-(2H-1,2,3-triazol-2-yl)pyridin-2-yl)(2-(5-(trifluoromethyl)pyrazin-2-yl)amino)-7-azabicyclo[2.2.1]heptan-7-yl)methanone]: the results for the Ki in test [1] (hOX1 Ki (nm)), in test [2] (hOX2 Ki (nm)) and in test [3] (rOX1 Ki (nm)) were 164 nM, 1200 nM and 134 nM, respectively.

As for `O=C(c1cccc(F)c1-c1ncccn1)N1C2CCC1C(Nc1ccc(C(F)(F)F)cn1)C2` (racemic) [Example 192, (±)-(3-fluoro-2-(pyrimidin-2-yl)phenyl)(2-((5-(trifluoromethyl)pyridin-2-yl)amino)-7-azabicyclo[2.2.1]heptan-7-yl)methanone], the inhibitory constant (Ki) in test [1] (hOX1 Ki (nm)) is 52 nM; in test [2] (hOX2 Ki (nm)) it was 1500 nM; in test [3] (rOX1 Ki (nm)), 60 nM.

For `Cc1ccc(-c2ncccn2)c(C(=O)N2C3CCC2C(Nc2ccc(C(F)(F)F)cn2)C3)n1` (racemic) [Example 195, (±)-(6-methyl-3-(pyrimidin-2-yl)pyridin-2-yl)(2-(5-(trifluoromethyl)pyridin-2-yl)amino)-7-azabicyclo[2.2.1]heptan-7-yl)methanone], the values for the Ki in test [1] (hOX1 Ki (nm)), in test [2] (hOX2 Ki (nm)) and in test [3] (rOX1 Ki (nm)) were 37 nM, 325 nM and 57 nM, respectively.

`O=C(c1ccccc1-n1nccn1)N1C2CCC1C(Nc1ccc(C(F)(F)F)cn1)C2` (racemic) [Example 196, (±)-(2-(2H-1,2,3-triazol-2-yl)phenyl)(2-(5-(trifluoromethyl)pyridin-2-yl)amino)-7-azabicyclo[2.2.1]heptan-7-yl)methanone]: the Ki turned out to be 61 nM in test [1] (hOX1 Ki (nm)), 1500 nM in test [2] (setting [4]) and 59 nM in test [3] (rOX1 Ki (nm)).

On to `O=C(c1ccccc1-n1nccn1)N1C2CCC1C(Nc1cnc3ccccc3n1)C2` (racemic) [Example 204, (±)-(2-(2H-1,2,3-triazol-2-yl)phenyl)(2-(quinoxalin-2-ylamino)-7-azabicyclo[2.2.1]heptan-7-yl)methanone], for which the Ki in test [1] (hOX1 Ki (nm)) amounted to 25 nM; in test [2] (hOX2 Ki (nm)), 220 nM; in test [3] (rOX1 Ki (nm)) it was 33 nM.

For the compound `Cc1ccc(-n2nccn2)c(C(=O)N2C3CCC2C(Nc2cnc4ccccc4n2)C3)n1` (racemic) [Example 205, (±)-(6-methyl-3-(2H-1,2,3-triazol-2-yl)pyridin-2-yl)(2-(quinoxalin-2-ylamino)-7-azabicyclo[2.2.1]heptan-7-yl)methanone], the Ki in test [1] (hOX1 Ki (nm)) came out at 50 nM; in test [2] (hOX2 Ki (nm)), 168 nM; in test [3] (rOX1 Ki (nm)) it was 79 nM.

As for `Cc1ccc(-c2ncccn2)c(C(=O)N2C3CCC2C(Nc2cnc4ccccc4n2)C3)n1` (racemic) [Example 208, (±)-(6-methyl-3-(pyrimidin-2-yl)pyridin-2-yl)(2-(quinoxalin-2-ylamino)-7-azabicyclo[2.2.1]heptan-7-yl)methanone], the Ki in test [1] (hOX1 Ki (nm)) was 30 nM; in test [2] (setting [4]), 90 nM; in test [3] (rOX1 Ki (nm)), 26 nM.

For `O=C(c1ccccc1-n1nccn1)N1C2CCC1C(Nc1ccc(Cl)cn1)C2` (racemic) [Example 211, (±)-(2-(2H-1,2,3-triazol-2-yl)phenyl)(2-(((5-chloropyridin-2-yl)amino)-7-azabicyclo[2.2.1]heptan-7-yl)methanone], the Ki in test [1] (hOX1 Ki (nm)) is 55 nM; in test [2] (setting [4]) it was 1800 nM; in test [3] (rOX1 Ki (nm)), 110 nM.

For `O=C(c1ccccc1-n1nccn1)N1C2CCC1C(Nc1nc3cc(Cl)ccc3o1)C2` (racemic) [Example 216, (±)-(2-(2H-1,2,3-triazol-2-yl)phenyl)(2-((5-chlorobenzo[d]oxazol-2-yl)amino)-7-azabicyclo[2.2.1]heptan-7-yl)methanone], the Ki in test [1] (hOX1 Ki (nm)) was determined as 71 nM; in test [2] (setting [4]), 475 nM; in test [3] (rOX1 Ki (nm)), 99 nM.

Take `Cc1ccc(-c2ncccn2)c(C(=O)N2C3CCC2C(Nc2ccc(Br)cn2)C3)n1` (racemic) [Example 217, (±)-(2-((5-bromopyridin-2-yl)amino)-7-azabicyclo[2.2.1]heptan-7-yl)(6-methyl-3-(pyrimidin-2-yl)pyridin-2-yl)methanone]: the figures for the Ki in test [1] (hOX1 Ki (nm)), in test [2] (setting [4]) and in test [3] (rOX1 Ki (nm)) were 40 nM, 770 nM and 59 nM, respectively.

With `Cc1ccc(-c2ncccn2)c(C(=O)N2[C@@H]3CC[C@H]2[C@H](COc2ccccn2)C3)n1` (single isomer, unassigned) [Example 3A, (6-methyl-3-(pyrimidin-2-yl)pyridin-2-yl)((1S*,2R*,4R*)-2-((pyridin-2-yloxy)methyl)-7-azabicyclo[2.2.1]heptan-7-yl)methanone], the values for the Ki in test [1] (hOX1 Ki (nm)), in test [2] (hOX2 Ki (nm)) and in test [3] (rOX1 Ki (nm)) were 19 nM, 268 nM and 24 nM, respectively.

For the compound `CCOc1ccc(C)nc1C(=O)N1C2CCC1C(Nc1cnc3ccccc3n1)C2` (single isomer, unassigned) [Example 207, (±)-(3-ethoxy-6-methylpyridin-2-yl)(2-(quinoxalin-2-ylamino)-7-azabicyclo[2.2.1]heptan-7-yl)methanone], the Ki in test [1] (setting [5]) came to 95 nM; in test [2] (setting [4]) it was 64 nM; in test [3] (setting [6]), 120 nM.

Consider `O=C(c1cccc(F)c1-c1ncccn1)N1[C@@H]2CC[C@H]1[C@H](Nc1cnc(C(F)(F)F)cn1)C2` [Example 238, (3-fluoro-2-(pyrimidin-2-yl)phenyl)((1S,2R,4R)-2-((5-(trifluoromethyl)pyrazin-2-yl)amino)-7-azabicyclo[2.2.1]heptan-7-yl)methanone], for which the Ki in test [1] (read-out: hOX1 Ki (nm)) amounted to 16 nM; in test [2] (read-out: hOX2 Ki (nm)), 955 nM; in test [3] (read-out: rOX1 Ki (nm)), 16 nM.

`COc1ccc(C(=O)N2[C@@H]3CC[C@H]2[C@H](Nc2cnc(C(F)(F)F)cn2)C3)c(-n2nccn2)c1` [Example 241, (4-methoxy-2-(2H-1,2,3-triazol-2-yl)phenyl)((1S,2R,4R)-2-((5-(trifluoromethyl)pyrazin-2-yl)amino)-7-azabicyclo[2.2.1]heptan-7-yl)methanone]: the Ki was 159 nM in test [1] (setting [5]), 5060 nM in test [2] (setting [4]) and 134 nM in test [3] (setting [6]).

Consider `COc1cccc(-n2nccn2)c1C(=O)N1[C@@H]2CC[C@H]1[C@H](Nc1cnc(C(F)(F)F)cn1)C2` [Example 242, (2-methoxy-6-(2H-1,2,3-triazol-2-yl)phenyl)((1S,2R,4R)-2-((5-(trifluoromethyl)pyrazin-2-yl)amino)-7-azabicyclo[2.2.1]heptan-7-yl)methanone], for which the Ki in test [1] (read-out: hOX1 Ki (nm)) stood at 41 nM; in test [2] (setting [4]), 239 nM; in test [3] (read-out: rOX1 Ki (nm)), 31 nM.

Consider `O=C(c1cc(F)ccc1-c1ncccn1)N1[C@@H]2CC[C@H]1[C@H](Nc1cnc(C(F)(F)F)cn1)C2` [Example 243, (5-fluoro-2-(pyrimidin-2-yl)phenyl)((1S,2R,4R)-2-((5-(trifluoromethyl)pyrazin-2-yl)amino)-7-azabicyclo[2.2.1]heptan-7-yl)methanone], for which the Ki was 45 nM in test [1] (read-out: hOX1 Ki (nm)), 723 nM in test [2] (setting [4]) and 34 nM in test [3] (read-out: rOX1 Ki (nm)).

For the compound `Cc1nc(C(=O)N2[C@@H]3CC[C@H]2[C@H](Nc2cnc(C(F)(F)F)cn2)C3)c(-c2ccc(F)cc2)s1` [Example 244, (5-(4-fluorophenyl)-2-methylthiazol-4-yl)((1S,2R,4R)-2-((5-(trifluoromethyl)pyrazin-2-yl)amino)-7-azabicyclo[2.2.1]heptan-7-yl)methanone], the inhibition constant Ki in test [1] (read-out: hOX1 Ki (nm)) was 46 nM; in test [2] (setting [4]) it was 235 nM; in test [3] (read-out: rOX1 Ki (nm)), 74 nM.
